Source: patent US20170095512A1, “METHODS OF INDUCING MYELINATION AND MATURATION OF OLIGODENDROCYTES” (KADIMASTEM LTD., priority 2014, published 2017)

System: glial progenitor cells derived from human ES cells (Olig2 positive cells)
Test: hOPC differentiation assay, Olig2 positive cells (immunostaining, high content screening)
Assay type: cell-based
Details: PDGF 20 ng/ml added during LDN-193189 dose-response assay, 21 days
Method: In order to initiate differentiation 20,000 GPCs were seeded in each well of Matrigel coated plates of 96 wells, or on PolyD-Lysine/laminin (PDL/lam)-coated 96 well plates. Cells were grown in GM media for two to three days. Then GM was replaced by differentiation medium without growth factors, (DMEM/F12, 1% B27, 0.5% N2, Vitamin C (Sigma, 50 ug/ml). Differentiation medium was supplemented with the following tested compounds: […] All media were replaced every other day. The oligodendrocyte lineage cells were characterized by the expression of a transcription factor olig2. The rabbit polyclonal AB anti olig2 (Millipore cat AB9610) was added to PFA fixed cells. […] The fixed cells were washed three times in blocking solution, olig2 diluted 1/500, in blocking solution, was added for 1 hour. The fixed cells were washed with PBS 3 times and goat anti rabbit Alexa Fluor 568 1/500 in PBS was added for 45 minutes. The fixed cells were washed three times. ArrayScan VTI HCS reader system (Cellomis, Thermo-scientific) was used for scanning at least 20 fields for each tested well under 10× objective in both assays (differentiation and myelination). Cellomics Neural profiling bio-application was used for processing and analyzing the images. For differentiation assay, the following parameters were tested: number and percentage of O4+ cells, number of processes, processes length and number of branching points. For myelination assay, the same morphological parameters were tested and in addition: areas of myelinated axons in pixels (MBP&NF overlap area) and Number of myelinated regions (MBP&NF overlap count) were also analyzed. Modifications in the Neuro-profiling bio-application were conducted for this specific purpose. T-test analysis was used to compare between treatments. The 4-parameter Hill-Slope curve fittings were generated by GraphPad Prism software using least squares fitting method and EC50 values were calculated. […] The cells at passage five were cultured for three days with GM on 96 well plates and after fixation, cells were reacted with anti-olig2 Ab, and olig2 positive cells and nuclei were scanned in the Thermo Scientific™ ArrayScan™ XTI High Content Analysis (HCA) Reader and counted with the neural profiling program. On the other hand the cells surface antigens O4 and PDGFRa were detected on dissociated cells after fixation and reaction with O4 Ab conjugated to APC, anti PDGFRa PE, as well as A2B5 PE all obtained from BD. Flow cytometry was conducted in BD FACS Canto II. […] Time points used for analysis are 21, 28, 35 and 42 days of differentiation, for each time point 20 fields were analyzed. […] In this experiment, cells at passage 4 were pretreated in differentiation medium with Noggin for 14 days, and split before seeding on 96 well plates.

PDGF: human recombinant PDGFAA (R&D)
number of olig2 positive cells on addition of PDGF: increases the number of olig2 positive cells about two folds
